Measurements: publication PMC12024397, “Structure–Activity Study of the Antimicrobial Lipopeptide Humimycin A and Screening Against Multidrug-Resistant Staphylococcus aureus” (Antibiotics, 2025)
Values after ≈ are worked out from the molar mass of the structure shown. Counter-ions that a name gives are not always drawn. Non-standard residues stand in square brackets, D forms with d. Residues, ends and D or L forms follow the SMILES beside them. *: point of attachment. Tetradecanoyl(3S-OH) = CCCCCCCCCCC[C@H](O)CC(=O)*

How the values were obtained:
S. aureus ATCC 29213 = test: microbe, parasite or virus in culture; conditions: Staphylococcus aureus, ATCC29213, read-out: Inhibition zone diameter
Description: Each agar well was loaded with 70 µL of a peptide solution (256 µg/mL).
For the agar diffusion assay, the bacterial strain was cultured overnight at 37 °C in the previously described media. Cultures were then inoculated at 1% (v/v) in a soft agar medium containing 1.5% (w/v) agar. Wells were created in the inoculated agar plates, and 70 µL of the humimycin analog solution (256 µg/mL) was added to each well. Kanamycin sulfate (256 µg/mL) and 5% dimethyl sulfoxide (DMSO) in water were included as positive and negative control, respectively.

[1] = system: Staphylococcus aureus ATCC 29213; format: cell-based
Text: (§1) Analogs were serially diluted two-fold from stock solutions.

[2] = system: Staphylococcus aureus ATCC 43300; format: cell-based; conditions: ATCC 43300
Text: as §1

[3] = system: Bacillus subtilis ATCC 23857; test: MIC, broth microdilution; format: cell-based; conditions: 37 °C, 18–20 h, triplicate
Text: as §1

[4] = system: Escherichia coli ATCC 25922; test: MIC, broth microdilution; format: cell-based; conditions: 37 °C, 18–20 h, triplicate
Text: as §1

[5] = system: Pseudomonas aeruginosa ATCC 27853; test: MIC, broth microdilution; format: cell-based; conditions: 37 °C, 18–20 h, triplicate
Text: as §1

[6] = system: Salmonella enterica ATCC 14028; test: MIC, broth microdilution; format: cell-based; conditions: 37 °C, 18–20 h, triplicate
Text: as §1

[7] = system: Staphylococcus and Streptococcus species; conditions: stereochemistry of the β-hydroxyl group; cited from earlier work
Text: Among promising AMLPs of bacterial origin, humimycins show very attractive activities against S. aureus. Humimycins A 1 and B 2 are composed of a heptapeptide bearing an N-terminal β-hydroxy myristoyl lipid chain (Table 1). […] A novel approach was employed to discover humimycins by combining bioinformatics and chemical synthesis. Rather than depending on bacterial cultures to discover and produce ... || β-Hydroxymyristic acid is specifically incorporated into lipopeptides like surfactin by certain enzymes in Bacillus species. […] The presence of a hydroxyl group imparts some amphiphilicity, aiding interaction with bacterial mem ...

SMILES	zone of inhibition at 256 µg/mL (S. aureus ATCC 29213) [mm]	MIC [1] [µg/mL]	MIC [2] [µg/mL]	MIC [3]	MIC [4]	MIC [5]	MIC [6]	potency of (S)-isomer relative to (R)-isomer [7]
NC[C@H]1O[C@H](O[C@H]2[C@H](O)[C@@H](O[C@H]3O[C@H](CO)[C@@H](O)[C@H](N)[C@H]3O)[C@H](N)C[C@@H]2N)[C@H](O)[C@@H](O)[C@@H]1O [Kanamycin sulfate]	24							
CCCCCCCCCCC[C@H](O)CC(=O)N[C@@H](Cc1ccc(O)cc1)C(=O)N[C@@H](CO)C(=O)N[C@H](Cc1ccc(O)cc1)C(=O)N[C@@H](Cc1ccccc1)C(=O)N[C@@H](C(=O)N[C@H](C(=O)N[C@H](C(=O)O)C(C)C)C(C)C)[C@H](C)O [compound 1, reference compound] ({Tetradecanoyl(3S-OH)}-YS[dY]F[dT]VV-OH; N-terminus and C-terminus assumed)		8 (≈ 7.24 µM)	16 (≈ 14.5 µM)	- ^b (No antimicrobial activity was detected up to 256 µg/mL)	- (No antimicrobial activity was detected up to 256 µg/mL)	- (No antimicrobial activity was detected up to 256 µg/mL)	- (No antimicrobial activity was detected up to 256 µg/mL)	four-fold more potent
